Source: patent US20220380310A1, “P2X7R ANTAGONISTS” (priority 2019, published 2022)
Structures can show the parent of a compound that is named as a salt.

Target: T1, Human P2X4 receptor (P2X4R) (Homo sapiens, UniProt Q99571)
T1 construct: expressed in transfected cells; host or cells: HEK-293
T1 sequence (Q99571 1-388): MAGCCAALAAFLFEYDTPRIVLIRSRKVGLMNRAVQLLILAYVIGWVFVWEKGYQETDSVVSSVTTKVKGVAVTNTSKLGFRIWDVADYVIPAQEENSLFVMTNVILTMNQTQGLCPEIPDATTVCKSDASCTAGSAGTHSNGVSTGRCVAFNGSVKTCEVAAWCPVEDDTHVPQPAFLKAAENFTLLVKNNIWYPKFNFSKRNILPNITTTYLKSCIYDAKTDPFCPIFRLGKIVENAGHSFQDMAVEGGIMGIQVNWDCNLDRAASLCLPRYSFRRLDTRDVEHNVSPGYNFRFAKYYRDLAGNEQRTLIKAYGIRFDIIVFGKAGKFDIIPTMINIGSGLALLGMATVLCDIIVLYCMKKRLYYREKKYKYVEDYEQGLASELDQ
Test: Receptor-mediated calcium entrance assay (Calcium Assay), P2X4R transfected HEK-293 cells
Type: cell-based
Conditions: HEK293, compound at 5 μM, 1 mM ATP stimulus, read-out: Percentage of activity remains in the presence of the compound at 5 μM, P2X4R (Calcium Assay)
Source text: Human P2X1 receptor (P2X1R) is a member of P2X family. […] Thus, the calcium assay was used. In the calcium assay, P2X receptor activation leads to opening of ion channels, which increases intracellular calcium concentration. The increased intracellular calcium concentration can be detected by a calcium indicator dye such as Fluo-4 or Fluo-8. Molecular Probes™ Fluo-4, AM (Cat. No. F14201 from Fisher Scientific) was used in the assay. The procedures were similar as described in the Yo-Pro-1 assay until day 4. The construct of P2X1R for transient transfection to HEK-293 cells was the courtesy from Dr. Richard J. Evans laboratory (J. Biol. Chem. 279:9043-9055). After transfection and expression, on day 4 cells were washed twice by Ca-HBSS (The composition (in mM) was NaCl 135, HEPES 10, D-glucose 10, KCl 5.4, CaCl2 2, and MgCl2 1, pH to 7.4 by NaOH) and incubated in dye loading solution (The solution contained 2.5 μM Fluo-4, 1 mM probenecid, and 1× PowerLoad (Cat. No. P10020 from Fisher Scientific) in Ca-HBSS) for 70 minutes at 37° C. Then the extracellular loading dye was washed away and cells were incubated at Ca-HBSS containing 1 mM probenecid for 30 minutes. Before the final steps, probenecid was washed away with Ca-HBSS. The assay was performed by adding 25 μl of Ca-HBSS followed by 25 μl of various test compounds. At this point, the base level of fluorescence was obtained through the microplate reading—the base microplate reading for this assay. At the end, the stimulus (ATP at 20 μM was the final concentration for P2X1R) was added to activate the P2X1R. Activation of P2X1R opened the channel to allow influx of calcium, which was represented by fluorescence increases that were measured by the microplate device with excitation at 475 nm and emission wavelength in the range of 500-550 nm. The data were analyzed the same way as described before: The result of each well was first normalized by its corresponding base microplate reading. Then, the negative control signal was subtracted from. In the negative control, the test compound and the stimulus were replaced by Ca-HBSS. […] An average of six highest values of the plate (AVG) were considered as 100% and the value of each well was divided by AVG and presented as the relative values in percentages.
Human P2X4 receptor (P2X4R) construct (J. Biol. Chem. 290, 7930-7942) was transiently transfected to HEK-293 cells and the calcium assay was performed as described above. When 1 mM ATP was used as stimulus, an increased receptor mediated activity leading to intracellular calcium elevation can be seen in less than 10 minutes.

| Compound | remaining activity at 5 µM [%] |
| --- | --- |
| CS(=O)(=O)c1ccc(N2CCCC(NC(=O)CCc3ccccc3)C2)cc1 (stereo not shown) [#1] | 71.9 |
| COc1ccc(S(=O)(=O)N2CCCC(NC(=O)CCc3ccccc3)C2)cc1 (stereo not shown) [#2] | 56.4 |
| O=C(CCc1ccccc1)NC1CCCN(S(=O)(=O)c2ccc(F)cc2)C1 (stereo not shown) [#3] | 67 |
| O=C(CCc1ccccc1)NC1CCCN(S(=O)(=O)c2ccc(OCc3ccccc3)cc2)C1 (stereo not shown) [#4] | 56.9 |
| O=C(CCc1ccccc1)NC1CCCN(S(=O)(=O)c2ccc(N3CCCCC3)cc2)C1 (stereo not shown) [#5] | 53.1 |
| CC(C)COc1ccc(S(=O)(=O)N2CCCC(NC(=O)CCc3ccccc3)C2)cc1 (stereo not shown) [#6] | 98.9 |
| CC(C)S(=O)(=O)c1ccc(N2CCCC(NC(=O)CCc3ccccc3)C2)cc1 (stereo not shown) [#7] | 76.8 |
| O=C(CCc1ccccc1)NC1CCCN(S(=O)(=O)Cc2ccc(Br)cc2)C1 (stereo not shown) [#8] | 50.9 |
| O=C(CCc1ccccc1)NC1CCCN(S(=O)(=O)c2ccc(-n3cc(Br)cn3)cc2)C1 (stereo not shown) [#9] | 84.5 |
| O=S(=O)(c1ccccc1)C1CN(S(=O)(=O)c2ccc(N3CCCCC3)cc2)C1 [#10] | 69.5 |
| O=S(=O)(c1ccccc1)C1CN(S(=O)(=O)c2ccc(N3CCOCC3)cc2)C1 [#11] | 59.6 |
| O=C(CCc1ccccc1)NC1CCCN(S(=O)(=O)c2ccc(N3CCOCC3)cc2)C1 (stereo not shown) [#12] | 69.1 |
| O=C(CCc1ccccc1)NC1CCCN(S(=O)(=O)c2ccc(N3CCCC3)cc2)C1 (stereo not shown) [#13] | 88.8 |
| CN(C)c1ccc(S(=O)(=O)N2CCCC(NC(=O)CCc3ccccc3)C2)cc1 (stereo not shown) [#14] | 70.9 |
| CCCCNc1ccc(S(=O)(=O)N2CCCC(NC(=O)CCc3ccccc3)C2)cc1 (stereo not shown) [#15] | 63.8 |
| O=C1CCC(N2Cc3c(NC(=O)CCc4ccccc4)cccc3C2=O)C(=O)N1 (stereo not shown) [#16] | 60.7 |
| COCCOc1ccc(S(=O)(=O)N2CCCC(NC(=O)CCc3ccccc3)C2)cc1 (stereo not shown) [#17] | 77.6 |
| CN1CCN(c2ccc(S(=O)(=O)N3CCCC(NC(=O)CCc4ccccc4)C3)cc2)CC1 (stereo not shown) [#18] | 61.6 |
| O=C(NCCc1ccccc1)C1CCN(S(=O)(=O)c2ccc(N3CCCCC3)cc2)CC1 [#20] | 50.6 |
| O=C(NCCc1ccccc1)C1CCN(S(=O)(=O)c2ccc(N3CCCC3)cc2)CC1 [#21] | 31 |
| CC(C)(C)OC(=O)N1CCN(c2ccc(S(=O)(=O)N3CCC(C(=O)NCCc4ccccc4)CC3)cc2)CC1 [#22] | 42.1 |
| O=C(NCCc1ccccc1)C1CCN(S(=O)(=O)c2ccc(N3CCOCC3)cc2)CC1 [#23] | 70.7 |
| O=C(NCCc1ccccc1)C1CCCN(S(=O)(=O)c2ccc(N3CCOCC3)cc2)C1 (stereo not shown) [#24] | 68.1 |
| O=C(NCCc1ccccc1)C1CCCN(S(=O)(=O)c2ccc(N3CCCC3)cc2)C1 (stereo not shown) [#25] | 61 |
| CCCCNc1ccc(S(=O)(=O)N2CCC(C(=O)O)CC2)cc1 [#27] | 59.9 |
| NC(=O)c1cc(Br)cc(N2CCOCC2)c1 [#28] | 85.4 |

| Compound | remaining activity at 5 µM [%] |
| --- | --- |
| O=C(CCc1ccccc1)N1CCNCC1 [#29, hydrochloride] | 67.1 |
| O=C(CCc1ccccc1)N1CCN(S(=O)(=O)c2ccc(F)cc2)CC1 [#30] | 76.8 |
| CC(C)(C)OC(=O)N1CCN(c2ccc(S(=O)(=O)N3CCN(C(=O)CCc4ccccc4)CC3)cc2)CC1 [#31] | 81.8 |
| O=C(CCc1ccccc1)N1CCN(S(=O)(=O)c2ccc(N3CCOCC3)cc2)CC1 [#32] | 91 |
| O=C(CCc1ccccc1)N1CCN(S(=O)(=O)c2ccc(NC3CCCCC3)cc2)CC1 [#33] | 83.9 |
| O=C(CCc1ccccc1)N1CCN(S(=O)(=O)c2ccc(N3CCCCC3)cc2)CC1 [#34] | 53.8 |
| O=C(CCc1ccccc1)N1CCN(S(=O)(=O)c2ccc(N3CCCC3)cc2)CC1 [#35] | 70.7 |
| CC(C)(C)OC(=O)N1CCN(c2ccc(S(=O)(=O)N3CCCC(C(=O)NCCc4ccccc4)C3)cc2)CC1 (stereo not shown) [#36] | 72.2 |
| CCOc1ccc(S(=O)(=O)N2CCCC(NC(=O)CCc3ccccc3)C2)cc1 (stereo not shown) [#37] | 54.8 |
| O=C(CCc1ccccc1)NC1CCCN(S(=O)(=O)c2ccc(N3CCC(Oc4ccccc4)CC3)cc2)C1 (stereo not shown) [#38] | 71.1 |
| CC(C)OC1CCN(c2ccc(S(=O)(=O)N3CCCC(NC(=O)CCc4ccccc4)C3)cc2)CC1 (stereo not shown) [#39] | 68.2 |
| CC1CCN(c2ccc(S(=O)(=O)N3CCCC(NC(=O)CCc4ccccc4)C3)cc2)CC1 (stereo not shown) [#40] | 62.9 |
| CC(C)(C)OC(=O)N1CCC(C2CCN(c3ccc(S(=O)(=O)N4CCCC(NC(=O)CCc5ccccc5)C4)cc3)CC2)CC1 (stereo not shown) [#41] | 39.9 |
| O=C(CCc1ccccc1)NC1CCCN(S(=O)(=O)c2ccc(N3CCC(C(F)(F)F)CC3)cc2)C1 (stereo not shown) [#42] | 55.8 |
| O=C(CCc1ccccc1)NC1CCCN(S(=O)(=O)c2ccc(F)c(Cl)c2)C1 (stereo not shown) [#43] | 48.4 |
| CC1CCCN(c2ccc(S(=O)(=O)N3CCCC(NC(=O)CCc4ccccc4)C3)cc2)C1 (stereo not shown) [#44] | 63.5 |
| O=C(CCc1ccccc1)NC1CCCN(S(=O)(=O)c2ccc(N3CCCCC3)c(Cl)c2)C1 (stereo not shown) [#45] | 61.9 |
| O=C(CCc1ccccc1)NC1CCCN(S(=O)(=O)c2ccc(N3CCC(F)(F)CC3)cc2)C1 (stereo not shown) [#46] | 75 |
| CC1CCCCN1c1ccc(S(=O)(=O)N2CCCC(NC(=O)CCc3ccccc3)C2)cc1 (stereo not shown) [#47] | 93.3 |
| CC(C)N(C(C)C)S(=O)(=O)c1ccc(N2CCCC(NC(=O)CCc3ccccc3)C2)cc1 (stereo not shown) [#49] | 35.3 |
| O=C(CCc1ccccc1)NC1CCCN(c2ccc(S(=O)(=O)Nc3ccccc3)cc2)C1 (stereo not shown) [#50] | 84.3 |
| O=C(CCc1ccccc1)NC1CCCN(c2ccc(S(=O)(=O)NC3CCCCC3)cc2)C1 (stereo not shown) [#51] | 71.3 |
| O=C(CCc1ccccc1)NC1CCCN(c2ccc(S(=O)(=O)NCc3ccco3)cc2)C1 (stereo not shown) [#52] | 52.8 |
| NS(=O)(=O)c1ccc(N2CCCC(NC(=O)CCc3ccccc3)C2)cc1 (stereo not shown) [#53] | 49.7 |
| O=C(CCc1ccccc1)NC1CCCN(c2ccc(S(=O)(=O)N3CCCCC3)cc2)C1 (stereo not shown) [#54] | 63.3 |
| O=C(CCc1ccccc1)NC1CCCN(c2ccc(S(=O)(=O)N3CCCC3)cc2)C1 (stereo not shown) [#55] | 37.7 |
